Measured values taken from patent US20150274777A1, “KETOAMIDE IMMUNOPROTEASOME INHIBITORS” (HOFFMANN-LA ROCHE INC., priority 2012, published 2015).

Key:
β2c/2i = experiment: Cell-Based Proteasome Activity/Selectivity Assay (Ramos cells), substrate (KQL)2Rh110; settings: highest concentration tested 20 μM
Text: (§1) Cell-Based Proteasome Activity/Selectivity Assay
(§2) The Cell-Based Proteasome subunit activity/selectivity assay was a panel of 5 fluorogenic assays that independently measured the activity of β5c or β5i (chymotrypsin-like activity), β2c/2i (trypsin-like), and β1c or β1i (caspase-like) protease activity associated with the proteasome complex in cultured cells. Specifically, the following substrates were used for respective subunit activities: β1i: (PAL)2Rh110, β1c: (LLE)2 Rh110, β2c/2i: (KQL)2Rh110, β5c: (WLA)2Rh110, β5i: (ANW)2Rh110. The following procedure was followed:
(§3) Cell preparation: Plated 25 μl of Ramos cells (2×10^6/ml in DPBS) into half area plate (PerkinElmer Cat 6005569) to final 5×10^4 cells/well. Added 0.5 μl of 100×4-fold serial diluted test compounds or DMSO to each well. Highest concentration of compound tested was 20 μM, thus compound serial dilution started from […]. Incubated for 30 minutes at 37° C. Then equilibrated at room temperature for 15 minutes. Added 25 μl of 2× reaction mix consisting of 0.025% digitonin, 20 μM of each substrates and 0.5M sucrose in DPBS. Shaked for one minute @ 700 rpm. Incubated for 120 min at room temperature. Then read the plates with an Envision multilabel plate reader (PerkinElmer) with 500 nm excitation/519 nm emission.

β1c = target: T1, β1c (Homo sapiens, UniProt P28072+Q99436); experiment: Cell-Based Proteasome Activity/Selectivity Assay (Ramos cells), substrate (LLE)2 Rh110; settings: highest concentration tested 20 μM
T1 construct: protease activity associated with the proteasome complex in cultured cells; endogenous in cells; host or cells: Ramos cells
Text: as §1, §2, §3

β5i = target: T2, β5i (Homo sapiens, UniProt P20618+P28062); experiment: Cell-Based Proteasome Activity/Selectivity Assay (Ramos cells), substrate (ANW)2Rh110; settings: highest concentration tested 20 μM, read-out: Ic50 ramos:ac-(anw)2-r110
T2 construct: protease activity associated with the proteasome complex in cultured cells; endogenous in cells; host or cells: Ramos cells
Text: as §1, §2, §3

β5c = target: T3, β5c (Homo sapiens, UniProt P20618+P28074); experiment: Cell-Based Proteasome Activity/Selectivity Assay (Ramos cells), substrate (WLA)2Rh110; settings: highest concentration tested 20 μM
T3 construct: protease activity associated with the proteasome complex in cultured cells; endogenous in cells; host or cells: Ramos cells
Text: as §1, §2, §3

β1i = target: T4, β1i (Homo sapiens, UniProt P28065+P40306); experiment: Cell-Based Proteasome Activity/Selectivity Assay (Ramos cells), substrate (PAL)2Rh110; settings: highest concentration tested 20 μM
T4 construct: protease activity associated with the proteasome complex in cultured cells; endogenous in cells; host or cells: Ramos cells
Text: as §1, §2, §3

[1] = system: IP10 level in PBMCs stimulated with CpG Type A; experiment: PBMC IP-10 Assay; type: cell-based; settings: CpG Type A 2.5 μM
Description: PBMCs were isolated from whole blood as follows: Blood was collected in a sterile environment in heparinized tubes. Blood was diluted with an equal volume PBS/2% FCS and 30 ml of this mixture was added to ACCUSPIN tubes containing 15 ml Histopaque-1077 already centrifuged at 800 g for 30 seconds and warmed up at room temperature. The tubes were then centrifuged at 800 g for 20 minutes at room temperature with no brake. The mononuclear band, just above the polyethylene frit, was removed by Pasteur pipet. These mononuclear cells were washed three times with sterile PBS, counted, and resuspended in RPMI 1640 supplemented with 10% heat inactivated fetal calf serum, 10 mM HEPES, 1 mM sodium pyruvate, penicillin (50 U/ml), streptomycin (50 μg/ml) and glutamine (2 mM) to approximately 1.5×10^6/ml. Approximately 2×10^5 cells/well were plated in 96 well tissue culture plates (BD Falcon 353072), and preincubated 60 mi/37° C. with a titration of compounds, in a final concentration of 1% DMSO. Cells were then stimulated with CpG Type A (Invivogen, Cat #tlrl-2216; ODN 2216) at a final concentration of 2.5 μM. Cells were incubated overnight, and supernatants were removed. PBMC viability of cells remaining in the well was measured with ATPlite luminescence assay (Perkin-Elmer) per the manufacturer's instructions. Luminescence was measured on the Perkin-Elmer Envision, using the luminescence filter. IP10 level was measured with CXCL10/IP10 AlphaLISA kit (Perkin-Elmer) per the manufacturer's instructions, except halving all volumes. Fluorescence was measured on the Envision Multilabel plate reader, using the AlphaScreen standard settings.

IC50 (β2c/2i) [nM]	IC50 (β1c) [nM]	IC50 (β5i) [nM]	IC50 (β5c) [nM]	IC50 (β1i) [nM]	SMILES	EC50 [1] [nM]
> 20000	13100	34	738	244	CNC(=O)C(=O)[C@H](Cc1ccccc1)NC(=O)[C@H](Cc1c[nH]c2ccccc12)NC(=O)[C@H](C)NC(=O)OCc1ccccc1 [Example 31, {(S)-1-[(S)-1-((S)-1-Benzyl-2-methylcarbamoyl-2-oxo-ethylcarbamoyl)-2-(1H-indol-3-yl)-ethylcarbamoyl]-ethyl}-carbamic acid benzyl ester]	1180
380	2380	4	15	181	COc1ccc(C[C@H](NC(=O)[C@@H](NC(=O)C2Cc3ccccc3C2)C2CC2)C(=O)N[C@@H](Cc2ccccc2)C(=O)C(=O)NCc2ccccc2)cc1 [Example 26, Indan-2-carboxylic acid {(S)-[(S)-1-((S)-1-benzyl-2-benzylcarbamoyl-2-oxo-ethylcarbamoyl)-2-(4-methoxy-phenyl)-ethylcarbamoyl]-cyclopropyl-methyl}-amide]	203
> 20000	10300	221	2350	1530	C[C@H](NC(=O)N1Cc2ccccc2C1)C(=O)N[C@@H](Cc1ccccc1)C(=O)N[C@@H](Cc1ccccc1)C(=O)C(=O)NCc1ccccc1 [Example 52, 1,3-Dihydro-isoindole-2-carboxylic acid {(S)-1-[(S)-1-((S)-1-benzyl-2-benzylcarbamoyl-2-oxo-ethylcarbamoyl)-2-phenyl-ethylcarbamoyl]-ethyl}-amide]	4500
> 20000	> 20000	121	4410	2170	COc1ccc(C[C@H](NC(=O)[C@H](C)NC(=O)CN2CCOCC2)C(=O)N[C@@H](Cc2ccccc2)C(=O)C(=O)NCc2ccccc2)cc1 [Example 46, (S)—N-Benzyl-3-{(S)-3-(4-methoxy-phenyl)-2-[(S)-2-(2-morpholin-4-yl-acetylamino)-propionylamino]-propionylamino}-2-oxo-4-phenyl-butyramide]	5780
> 20000	13200	102	3050	712	CCCC[C@H](NC(=O)[C@H](Cc1c[nH]c2ccccc12)NC(=O)[C@H](C)NC(=O)C1=C(C)c2ccccc2C1)C(=O)C(=O)N[C@@H](C)c1ccccc1 [Example 7]	4010
> 20000	> 20000	3	55	234	COc1ccc(C[C@H](NC(=O)[C@H](C)NC(=O)C2Cc3ccccc3C2)C(=O)N[C@@H](Cc2ccccc2)C(=O)C(=O)NCc2ccccc2)cc1 [Example 19, Indan-2-carboxylic acid {(S)-1-[(S)-1-((S)-1-benzyl-2-benzylcarbamoyl-2-oxo-ethylcarbamoyl)-2-(4-methoxy-phenyl)-ethylcarbamoyl]-ethyl}-amide]	695
> 20000	> 20000	62	973	359	CC(C)C[C@H](NC(=O)[C@H](C)NC(=O)OCc1ccccc1)C(=O)N[C@@H](Cc1ccccc1)C(=O)C(=O)NCc1ccccc1 [Example 36, {(S)-1-[(S)-1-((S)-1-Benzyl-2-benzylcarbamoyl-2-oxo-ethylcarbamoyl)-3-methyl-butylcarbamoyl]-ethyl}-carbamic acid benzyl ester]	2800
> 20000	> 20000	89	1360	> 20000	COc1ccc(C[C@H](NC(=O)[C@H](C)NC(=O)C2Cc3ccccc3C2)C(=O)NC2(C(=O)C(=O)NCc3ccccc3)Cc3ccccc3C2)cc1 [Example 59, Indan-2-carboxylic acid {(S)-1-[(S)-1-(2-benzylaminooxalyl-indan-2-ylcarbamoyl)-2-(4-methoxy-phenyl)-ethylcarbamoyl]-ethyl}-amide]	11700
> 20000	18300	17	926	274	C[C@H](NC(=O)OCc1ccccc1)C(=O)N[C@@H](Cc1c[nH]c2ccccc12)C(=O)N[C@@H](Cc1ccccc1)C(=O)C(=O)NCc1ccccc1 [Example 16, {(S)-1-[(S)-1-((S)-1-Benzyl-2-benzylcarbamoyl-2-oxo-ethylcarbamoyl)-2-(1H-indol-3-yl)-ethylcarbamoyl]-ethyl}-carbamic acid benzyl ester]	1330
> 20000	> 20000	221	1360	1780	Cc1cc(C(=O)N[C@@H](C)C(=O)N[C@@H](Cc2ccccc2)C(=O)N[C@@H](Cc2ccccc2)C(=O)C(=O)NCc2ccccc2)n(C)n1 [Example 53, 2,5-Dimethyl-2H-pyrazole-3-carboxylic acid {(S)-1-[(S)-1-((S)-1-benzyl-2-benzylcarbamoyl-2-oxo-ethylcarbamoyl)-2-phenyl-ethylcarbamoyl]-ethyl}-amide]	4900
> 20000	11100	33	771	504	CCCC[C@H](NC(=O)[C@H](Cc1c[nH]c2ccccc12)NC(=O)[C@H](C)NC(=O)C1=C(C)c2ccccc2C1)C(=O)C(=O)N[C@H](C)c1ccccc1 [Example 8]	1780
11900	5620	275	2060	218	COc1ccc(C[C@H](NC(=O)[C@H](C)NC(=O)c2cnccn2)C(=O)N[C@@H](Cc2ccccc2)C(=O)C(=O)NCc2ccccc2)cc1 [Example 29, Pyrazine-2-carboxylic acid {(S)-1-[(S)-1-((S)-1-benzyl-2-benzylcarbamoyl-2-oxo-ethylcarbamoyl)-2-(4-methoxy-phenyl)-ethylcarbamoyl]-ethyl}-amide]	4170
> 20000	> 20000	30	960	478	C[C@H](NC(=O)OCc1ccccc1)C(=O)N[C@@H](Cc1ccncc1)C(=O)N[C@@H](Cc1ccccc1)C(=O)C(=O)NCc1ccccc1 [Example 58, {(S)-1-[(S)-1-((S)-1-Benzyl-2-benzylcarbamoyl-2-oxo-ethylcarbamoyl)-2-pyridin-4-yl-ethylcarbamoyl]-ethyl}-carbamic acid benzyl ester]	1330
> 20000	> 20000	294	5110	4740	COc1ccc(C[C@H](NC(=O)C2(NC(=O)OCc3ccccc3)CC2)C(=O)N[C@@H](Cc2ccccc2)C(=O)C(=O)NCc2ccccc2)cc1 [Example 28, {1-[(S)-1-((S)-1-Benzyl-2-benzylcarbamoyl-2-oxo-ethylcarbamoyl)-2-(4-methoxy-phenyl)-ethylcarbamoyl]-cyclopropyl}-carbamic acid benzyl ester]	2790
> 20000	13500	10	1090	589	C[C@H](NC(=O)OCc1ccccc1)C(=O)N[C@@H](Cc1c[nH]c2ccccc12)C(=O)N[C@@H](Cc1ccccc1)C(=O)C(=O)NCc1ccccn1 [Example 34, {(S)-1-[(S)-1-{(S)-1-Benzyl-2-oxo-2-[(pyridin-2-ylmethyl)-carbamoyl]-ethylcarbamoyl}-2-(1H-indol-3-yl)-ethylcarbamoyl]-ethyl}-carbamic acid benzyl ester]	1160
